# Assay results taken from patent publication US20230190863A1, “PHARMACEUTICAL COMPOSITIONS AND ANTI-VIRAL USES THEREOF” (priority 2020, published 2023).
# “And” between values parts separate entries of the source, which are not always exact repeats. Equal entries are not always repeated. Where two headings read alike, the source gives them in different places. Ends that are not written are not given here.
# What was measured:
# [1] = test system: Vero cells; settings: for Absorbance values - cytotoxicity at 24 h / Percentages of cytotoxicity at 24 h / cytotoxicity (in words): Vero cells; for Absorbance values - cytotoxicity at 24 h: MTT 570 nm; for Absorbance values - cytotoxicity at 24 h / Percentages of cytotoxicity at 24 h: replicates
# Protocol: (§1) Antiviral activity was determined at 24 h using an immunofluorescence-based assay. Cytotoxicity was determined using an MTT assay on uninfected cells treated with the same concentrations of peptide.
# (§2) Virus and peptide were left on the cells for the entire duration of the experiment (24 h).
# (§3) Either immediately after infection, or 2 h after infection, 50µl of treatment from the dilution plate were transferred to the cells in each plate (infectivity and cytotoxicity). […] 50 µl of media without diluent were added to the cytotoxicity plate instead of virus. Both plates were incubated at 37° C., 5% CO2 for 24 h.
# (§4) The cytotoxicity plate was treated with MTT to determine cell viability.
# (§5) Cytotoxicity was detected by MTT assay following standard protocols and techniques. Briefly, the MTT reagent (Sigma, M5655) was added to the cells for 2 h at 37° C., 5% CO2, after which the media was removed and the precipitate solubilized with a mixture of 1: 1 Isopropanol: DMSO for 20 minutes. The supernatant was transferred to a clean plate and signal read at 570 nm.
# [2] = Preliminary safety in pilot studies using human subjects; format: in vivo
# [3] = in vitro; settings: dog, MTT
# [4] = test system: MDCK-II cells; settings: for Absorbance values - cytotoxicity at 24 h: MTT 570 nm; for Absorbance values - cytotoxicity at 24 h / Percentages of cytotoxicity at 24 h: replicates
# [5] = test system: SARS-CoV2
# [6] = in vitro; settings: African green monkey
# Protocol: as §1, §2, §3, §4, §5
# [7] = test system: SARS-CoV2; test: microbe, parasite or virus in culture; settings: Severe acute respiratory syndrome coronavirus 2, Vero, 24 h
# [8] = test system: Influenza A virus (A / WSN /33)
# [9] = test system: Influenza A virus (A / WSN /33); test: microbe, parasite or virus in culture; settings: MDCK-II, 24 h
# [10] = test system: SARS-CoV-2; test: Clinical study of INS peptide (GAMMORA) in patients with moderate to severe COVID-19; format: in vivo, human; settings: of 15 treated, 40 mg/day SC for 9 days plus standard of care (Atripla)
# [11] = uninfected Vero cells, MTT, 24 h
compound,measurement,setting,value
WTAVQMAVFIHNFKRK [Codivir],Absorbance values - cytotoxicity at 24 h,[1]; 0.05 uM,0.1161 and 0.1456 and 0.1448 and 0.1447 and 0.1351
same,Percentages of cytotoxicity at 24 h,[1]; 0.05 uM,4.24% and -20.09% and -19.43% and -19.35% and -9.12% and -11.43%
same,Absorbance values - cytotoxicity at 24 h,[1]; 0.15 uM,0.1361 and 0.143 and 0.1487 and 0.1479 and 0.1455 and 0.1446
same,Percentages of cytotoxicity at 24 h,[1]; 0.15 uM,-12.26% and -17.95% and -22.65% and -21.99% and -20.01% and -19.27%
same,Absorbance values - cytotoxicity at 24 h,[1]; 0.46 uM,0.1454 and 0.1447 and 0.1452 and 0.1433 and 0.1468 and 0.1493
same,Percentages of cytotoxicity at 24 h,[1]; 0.46 uM,-19.93% and -19.35% and -19.76% and -18.20% and -21.08% and -23.15%
same,Absorbance values - cytotoxicity at 24 h,[1]; 4.17 uM,0.1306 and 0.1426 and 0.1477 and 0.1432 and 0.1433 and 0.1556
same,Percentages of cytotoxicity at 24 h,[1]; 4.17 uM,-7.72% and -17.62% and -21.83% and -18.12% and -18.20% and -28.34%
same,Absorbance values - cytotoxicity at 24 h,[1]; 12.50 uM,0.1196 and 0.1315 and 0.1325 and 0.1324 and 0.1314 and 0.1395
same,Percentages of cytotoxicity at 24 h,[1]; 12.50 uM,1.35% and -8.46% and -9.29% and -9.21% and -8.38% and -15.06%
same,Absorbance values - cytotoxicity at 24 h,[1]; 25.00 uM,0.0691 and 0.075 and 0.0733 and 0.0763 and 0.0762 and 0.0822
same,Percentages of cytotoxicity at 24 h,[1]; 25.00 uM,43.00% and 38.14% and 39.54% and 37.07% and 37.15% and 32.20%
same,Absorbance values - cytotoxicity at 24 h,[1]; 75.00 uM,0.0407 and 0.0403 (2×) and 0.0389 and 0.0414 and 0.0421
same,Percentages of cytotoxicity at 24 h,[1]; 75.00 uM,66.433% and 66.76% (2×) and 67.91% and 65.85% and 65.27%
same,cytotoxicity (in words),[1]; at concentrations giving 90% inhibition of infectivity,minimal cytotoxicity
same,cytotoxicity (in words),[1]; highest concentrations tested,Some cytotoxicity
same,TC90,[1]; [11],143.6 µM
same,TC99.9,[1]; [11],185.9 µM
same,adverse events / severe adverse events,[2],No adverse events or severe adverse events were detected
same,"tolerability, side effects",[2],"tolerable, exhibits no reported side effects and no harm to immune system, with no adverse events"
same,"vital signs, physical examinations",[2],no significant differences
same,blood tests,[2]; relative to baseline,no significant changes relative to the baseline
same,CC50 at 24 h,"[3]; TC50, text, MDCK-II cells",~50 µM
same,CC50 at 24 h,"[3]; uninfected MDCK-II cells, TC50, post-infection row",51 µM
same,CC50 at 24 h,"[3]; uninfected MDCK-II cells, TC50, with infection row",49.2 µM
same,Absorbance values - cytotoxicity at 24 h,[4]; 0.05 µM,0.0985 and 0.1183 and 0.1389 and 0.1493 and 0.1468 and 0.1612
same,Absorbance values - cytotoxicity at 24 h,[4]; 0.15 µM,0.1552 and 0.1707 and 0.1789 and 0.1965 and 0.1896 and 0.2019
same,Absorbance values - cytotoxicity at 24 h,[4]; 0.46 µM,0.1522 and 0.1679 and 0.2104 and 0.2062 and 0.1922 and 0.1978
same,Absorbance values - cytotoxicity at 24 h,[4]; 4.17 µM,0.2071 and 0.1982 and 0.2203 and 0.2153 and 0.2027 and 0.2054
same,Absorbance values - cytotoxicity at 24 h,[4]; 12.50 µM,0.183 and 0.2158 and 0.2057 and 0.2165 and 0.2045 and 0.2113
same,Absorbance values - cytotoxicity at 24 h,[4]; 25.00 µM,0.1794 and 0.1713 and 0.1708 and 0.1681 and 0.1845 and 0.1841
same,Absorbance values - cytotoxicity at 24 h,[4]; 75.00 µM,0.0422 and 0.0436 and 0.0425 and 0.0421 (2×) and 0.0419
same,TC90,"[4]; MTT, 24 h",around 100 µM
same,cytotoxicity (in words),[4]; highest concentrations tested,Some cytotoxicity
same,Percentages of cytotoxicity at 24 h,"[4]; post infection, 0.05 µM",24.34% and 25.6% and 18.31%
same,Percentages of cytotoxicity at 24 h,"[4]; post infection, 0.15 µM",0.42% and 3.91% and -2.32%
same,Percentages of cytotoxicity at 24 h,"[4]; post infection, 0.46 µM",-4.5% and 2.6% and -0.24%
same,Percentages of cytotoxicity at 24 h,"[4]; post infection, 4.17 µM",-9.11% and -2.72% and -4.09%
same,Percentages of cytotoxicity at 24 h,"[4]; post infection, 12.50 µM",-9.72% and -3.64% and -7.08%
same,Percentages of cytotoxicity at 24 h,"[4]; post infection, 25.00 µM",14.81% and 6.5% and 6.7%
same,Percentages of cytotoxicity at 24 h,"[4]; post infection, 75.00 µM",78.66% (2×) and 78.77%
same,Percentages of cytotoxicity at 24 h,"[4]; with infection, 0.05 µM",50.08% and 40.05% and 29.61%
same,Percentages of cytotoxicity at 24 h,"[4]; with infection, 0.15 µM",21.35% and 13.49% and 9.34%
same,Percentages of cytotoxicity at 24 h,"[4]; with infection, 0.46 µM",22.87% and 14.91% and -6.63%
same,Percentages of cytotoxicity at 24 h,"[4]; with infection, 4.17 µM",-4.95% and -0.44% and -11.64%
same,Percentages of cytotoxicity at 24 h,"[4]; with infection, 12.50 µM",7.26% and -9.36% and -4.24%
same,Percentages of cytotoxicity at 24 h,"[4]; with infection, 25.00 µM",9.08% and 13.19% and 13.44%
same,Percentages of cytotoxicity at 24 h,"[4]; with infection, 75.00 µM",78.61% and 77.9% and 78.46%
same,EC50,[5]; 24 h,12.5 µM
same,CC50 at 24 h,[6],43.5 µM
"CCC(CC)COC(=O)[C@H](C)N[P@](=O)(OC[C@H]1O[C@@](C#N)(c2ccc3c(N)ncnn23)[C@H](O)[C@@H]1O)Oc1ccccc1 [Remdesivir, reference compound]",Absorbance values - cytotoxicity at 24 h,[1]; 0.01 uM,0.1378 and 0.1381
same,Absorbance values - cytotoxicity at 24 h,[1]; 0.03 uM,0.147 and 0.1423
same,Absorbance values - cytotoxicity at 24 h,[1]; 0.08 uM,0.1483 and 0.1462
same,Absorbance values - cytotoxicity at 24 h,[1]; 0.25 uM,0.1554 and 0.1531
same,Absorbance values - cytotoxicity at 24 h,[1]; 0.74 uM,0.1606 and 0.1568
same,Absorbance values - cytotoxicity at 24 h,[1]; 2.22 uM,0.1599 and 0.1541
same,Absorbance values - cytotoxicity at 24 h,[1]; 6.67 uM,0.1198 and 0.1127
same,Absorbance values - cytotoxicity at 24 h,[1]; 20 uM,0.1234 and 0.1247
same,EC50,[7],1.28 µM
same,EC90,[7],3.9 µM
same,EC99.9,[5],4.4 µM
"O=C(Nc1ccc([N+](=O)[O-])cc1Cl)c1cc(Cl)ccc1O [Niclosamide, reference compound]",SI50 (=TC50/EC50),[8],16.84
same,SI90 (=TC90/EC90),[8],4.19
same,EC50,[9],0.61 µM
same,EC90,[9],3.06 µM
same,Absorbance values - cytotoxicity at 24 h,[4]; 0 µM,0.1646 and 0.1811
same,Percentages of cytotoxicity at 24 h,[4]; 0 µM,16.58% and 8.22%
same,Absorbance values - cytotoxicity at 24 h,[4]; 0.01 µM,0.2048
same,Percentages of cytotoxicity at 24 h,[4]; 0.01 µM,-3.79%
same,Absorbance values - cytotoxicity at 24 h,[4]; 0.04 µM,0.2247 and 0.2292
same,Percentages of cytotoxicity at 24 h,[4]; 0.04 µM,-13.87% and -16.15%
same,Absorbance values - cytotoxicity at 24 h,[4]; 0.12 µM,0.213 and 0.2407
same,Percentages of cytotoxicity at 24 h,[4]; 0.12 µM,-7.94% and -21.98%
same,Absorbance values - cytotoxicity at 24 h,[4]; 0.37 µM,0.2429 and 0.2319
same,Percentages of cytotoxicity at 24 h,[4]; 0.37 µM,-23.1% and -17.52%
same,Absorbance values - cytotoxicity at 24 h,[4]; 1.11 µM,0.227 and 0.2465
same,Percentages of cytotoxicity at 24 h,[4]; 1.11 µM,-15.04% and -24.92%
same,Absorbance values - cytotoxicity at 24 h,[4]; 3.33 µM,0.2005 and 0.1965
same,Percentages of cytotoxicity at 24 h,[4]; 3.33 µM,-1.61% and 0.42%
same,Absorbance values - cytotoxicity at 24 h,[4]; 10 µM,0.107 and 0.1166
same,Percentages of cytotoxicity at 24 h,[4]; 10 µM,45.77% and 40.91%
WTAVQMAVFIHNFKRK [INS-HC1],patients recovered completely and negative for SARS-CoV-2 at end of study,[10],Four
same,patients discharged from intensive care unit (ICU) to the general ward with almost full recovery,"[10]; moderate to severe COVID-19, control group (Atripla only): 14 out of 15 died",15 patients
